Test results: US20060084577A1, “Formulation and application of Indole-Derivatives for avoiding fruit and vegetable cracking” (priority 2004, published 2006)

Tested on: sweet cherries, 'Schneiders' variety
Assay: Field trial of cracking of sweet cherries after application of Tryptophane on cherry trees
Type: in vivo, Prunus avium L.
Settings: for Number of Damaged Fruits / Percentage of Damaged Fruits: 20 and 29 Jun. 2002, 300 cherries sampled at harvest, evaluated Jul. 7, 2002 after heavy rainfall
Protocol: The following Experiments describe the results of field trials, showing the reducing effect on the cracking of cherries by applying Tryptophane on cherry trees. The influence of the application of the anti-cracking formulation of the present invention on cracking of sweet cherries, was tested on the commercially available ‘Schneiders’ variety of sweet cherry in Belgium during the 2002 growing season. The plant density was approximately 1,646 stems per acre (666 stems/hectare or “ha”). Two different amounts of Tryptophane were applied on the cherry tries and compared with an untreated control. • Experiment 1: Control Group (No treatment with the anti-cracking formulation.) • Experiment 2: 0.0223 lb/acre (25 g/ha) Tryptophane, on 20 Jun. 2002, and 0.0223 lb/acre (25 g/ha) Tryptophane, on 29 Jun. 2002. • Experiment 3: 0.0446 lb/acre (50 g/ha) Tryptophane, on 20 Jun. 2002, and 0.0446 lb/acre (50 g/ha) Tryptophane, on 29 Jun. 2002.
On Jun. 20, 2002, the plants of Experiment 1 and Experiment 2, as listed above, were treated in the evening, under sunny conditions, 71.6° F. (22° C.), and little wind. The cherries began to ripen. On Jun. 29, 2002, the plants of Experiment 1 and Experiment 2 were again treated in the evening, at sunny growth conditions, under slightly cloudy skies, 68° F. (20° C.), and moderate wind. The ripening of the cherries was fully underway.
An evaluation of the cherries in the above Experiments were made on Jul. 7, 2002, after heavy rainfall. For the Experiment's Results, as listed in TABLE 1, below, 300 cherries were randomly sampled at harvest, from which the number of intact and damaged cherries was determined.

[1] = 2* 0.0223 lb/acre (25 g/ha) Tryptophane
[2] = 2*0.0446 lb/acre (50 g/ha) Tryptophane

## N[C@@H](Cc1c[nH]c2ccccc12)C(=O)O [Tryptophane]
[1]
  Number of Damaged Fruits: 78
  Percentage of Damaged Fruits: 26%
[2]
  Number of Damaged Fruits: 42
  Percentage of Damaged Fruits: 14%
Double application of 0.0446 lbs per acre (50 g per hectare), versus untreated control
  reduction of the damage to the cherries: approximately 50%
